System: Huh7 psiCHECK-miR122 Renilla luciferase reporter, 48 h
Test: suppression of miR-122 activity, Renilla luciferase sensor – cell-based, Huh7 psiCHECK-miR122, cherry-pick, dose response (AID 652053)

Structure (SMILES)	AC40 [µM]
C[C@H](CO)N1C[C@H](C)[C@@H](CN(C)Cc2ccc(C(=O)Nc3ccccc3N)cc2)Oc2c(NC(=O)Nc3ccccc3)cccc2C1=O	23.5
COc1cccc(N2CCN(C(=O)c3oc4ccccc4c3NC(=O)CCc3cc(OC)no3)CC2)c1	1.31
O=C(Nc1ccc(F)cc1)N1C[C@H]2[C@@H](c3ccccc31)[C@@H](CO)N2C(=O)c1ccc(F)cc1	10.9
COc1ccc(OC)c(S(=O)(=O)Nc2ccccc2C(F)(F)F)c1	9.97
O=S1(=O)N=CN(Cc2cccc(F)c2)c2ccccc21	3.02
Cc1ccc(NS(=O)(=O)c2ccc3c(c2)NC(=O)CO3)cc1C	6.29
Cc1cc(C)cc(NS(=O)(=O)c2ccc3oc(=O)ccc3c2)c1	3.43
O=S(=O)(NCC1CCCO1)c1cc(Br)c(Br)s1 (stereo not given)	4
O=C(Nc1ccccc1F)N1C[C@H]2[C@@H](c3ccccc31)[C@@H](CO)N2C(=O)c1ccc(F)cc1	1.25
Cc1ccc(S(=O)(=O)NCCC2=CCCCC2)cc1	5.27
Cc1ccc(C(=O)NCc2ccco2)cc1S(=O)(=O)Nc1cccc(C)c1C	6.29
COc1ccc(S(=O)(=O)NCCc2c(C)nn(C)c2Oc2ccccc2)cc1	4.82
COc1cc(CN(C)C(=O)C(=O)c2c[nH]c3ccccc23)ccc1O	6.67
O=C(c1ccc(F)cc1)N1C[C@H]2[C@@H](c3ccccc31)[C@@H](CO)N2C(=O)c1ccc(F)cc1	1.59
CC(=O)N1CCOc2ccc(S(=O)(=O)Nc3cccc(C)c3)cc21	1.64
CCOC(=O)/C(=N/Nc1ccc(Cl)cc1)S(=O)(=O)c1ccccc1	3.28
CC(=O)N1CCSc2ccc(S(=O)(=O)Nc3ccc(C)cc3)cc21	4.2
COc1cccc(N2CCN(C(=O)c3oc4ccccc4c3NC(=O)Cc3ccc(OC)c(OC)c3)CC2)c1	1.62
COc1ccc(C2C(Oc3ccccc3)C(=O)N2c2cc(C)ccc2C)cc1OC (stereo not given)	23.1
Cc1sc2ncn(CC(=O)N(CC(=O)NC3CCCC3)Cc3cccs3)c(=O)c2c1C	20
Cc1ccc(NS(=O)(=O)c2cc(C(=O)NCc3ccccn3)ccc2Cl)cc1C	2.91
O=C(Nc1sc2c(c1C(=O)O)CCC2)c1ccco1	15.1
COc1ccc(-c2cc(C)no2)cc1S(=O)(=O)Nc1cccc(C)c1	0.83
Cc1cc(-c2ccc(C(C)C)c(S(=O)(=O)NCc3ccco3)c2)on1	1.22
O=C(CCc1ccc(S(=O)(=O)NCCc2ccccc2)cc1)NCc1ccc2c(c1)OCO2	8.53

Structure (SMILES)	AC40 [µM]
Cc1cc(Br)ccc1NC(=S)NCCc1ccccc1	9.65
CC(=O)Nc1ccc2c(c1)C(=O)N(C)[C@H]1CC[C@@H](CC(=O)NCc3ccc(Cl)cc3)O[C@H]1CO2	11
Cc1ccc(NC(=O)C(OC(=O)c2ccc(F)cc2)c2ccccc2)cc1Cl (stereo not given)	2.85
CCN(CC)S(=O)(=O)c1cc(NS(=O)(=O)c2cccc(Cl)c2)ccc1C	8.63
CSc1ccc(S(=O)(=O)Nc2ccc(F)cc2)cc1	5.15
CCCC#Cc1cnc2c(c1)C(=O)N([C@H](C)CO)C[C@H](C)[C@H](CN(C)Cc1ccccc1F)O2	13.1
COc1cc2oc3ccccc3c2cc1N(CC(=O)N(C)C)S(=O)(=O)c1ccccc1	4.54
CCOc1ccc(NS(=O)(=O)c2cc(NC(=O)C3CC3)ccc2C)cc1Br	2.15
COc1ccccc1NS(=O)(=O)c1cc(NC(=O)Nc2ccccc2)ccc1N1CCCCC1	1.37
Cc1nn(C)c(C)c1S(=O)(=O)NCc1cccs1	13.9
Cc1ccc(-c2nn3c(C)nnc3c3ccccc23)cc1S(=O)(=O)NCCN1CCOCC1	3.24
C[C@H](CO)N1C[C@H](C)[C@H](CN(C)Cc2ccc(C(=O)Nc3ccccc3N)cc2)Oc2ccc(NS(=O)(=O)c3cn(C)cn3)cc2CC1=O	27
C[C@H](CO)N1C[C@H](C)[C@H](CN(C)Cc2ccc(C(=O)Nc3ccccc3N)cc2)Oc2ccc(NS(=O)(=O)c3ccc(F)cc3)cc2CC1=O	7.93
Cc1ccc2ccccc2c1C(O)c1ncc(-c2ccccc2F)[nH]1 (stereo not given)	4.22
Cc1ccc(NC(=S)NCc2ccc(F)cc2)cc1	20.3
COc1ccccc1NS(=O)(=O)c1cc(C(=O)NCc2ccco2)ccc1C	13.5
CCOc1ccccc1N(CC(=O)N1CCCCCC1)S(=O)(=O)c1ccc(C)cc1	1.23
COc1ccc(Br)cc1S(=O)(=O)N1CCN=C1c1ccccc1	9.26
C[C@H](CO)N1C[C@H](C)[C@@H](CN(C)Cc2cncnc2)Oc2cc(C#CC3CCCC3)ccc2S1(=O)=O	0.805
CCOc1ccc(S(=O)(=O)NCCN2CCOCC2)c2ccccc12	1.14
COc1ccc(C)cc1NS(=O)(=O)c1ccc2c(c1)N(C)CCO2	1.54
CC(C)c1ccc(S(=O)(=O)Nc2ccc3c(c2)OCO3)cc1	2.71
CCN(CC)S(=O)(=O)c1ccc(N2CCOCC2)c(NS(=O)(=O)c2ccc(C(C)C)cc2)c1	5.51
COc1ccccc1N(CC(=O)N1CCCCC1C)S(=O)(=O)c1ccc(Cl)cc1 (stereo not given)	2.31
COc1ccc(OC)c(N(CC(=O)N2CCC(C)CC2)S(=O)(=O)c2ccccc2)c1	4.36

Structure (SMILES)	AC40 [µM]
COc1ccccc1NS(=O)(=O)c1cc(NC(=O)c2sccc2C)ccc1N1CCCC1	1.12
COc1ccc(OC)c(S(=O)(=O)Nc2ccc(C(C)=O)cc2)c1	1.58
COc1cc(NS(=O)(=O)c2ccc(NC(=S)NC(=O)c3ccco3)cc2)nc(OC)n1	7.11
COc1cc(C)c(Cl)c(C)c1S(=O)(=O)NCc1cccnc1	2.3
Cc1ccc(-c2cnc(C3CC3)o2)cc1S(=O)(=O)Nc1ccccc1	3.08
COc1ccc(F)cc1S(=O)(=O)Nc1ccc2c(c1)OCO2	5.47
CCc1c(C(=O)Nc2ccc(OC)cc2)[nH]c(C)c1C(C)=O	5.6
COc1ccc(-c2cc(C(=O)N(C)Cc3ccccc3F)c3ccccc3n2)cc1OC	14.7
C[C@@H]1CN([C@H](C)CO)C(=O)Cc2cc(N(C)C)ccc2O[C@@H]1CN(C)Cc1ccc(C(=O)Nc2ccccc2N)cc1	11.1
Cc1cc(S(=O)(=O)Nc2cc(C)c(O)c(C)c2)c(C)s1	24.9
CCc1ccc(-c2cc(C)no2)cc1S(=O)(=O)NCCc1ccc(OC)c(OC)c1	7.43
CC(=O)Nc1ccc(S(=O)(=O)Nc2cccc(-c3nc4ccccc4o3)c2)cc1	6.93
Cc1ccc(S(=O)(=O)Nc2ccc3ccccc3c2)cc1	7.08
Cc1cc(Cl)c(Cl)cc1S(=O)(=O)NCCCn1ccnc1	2.79
CCc1cccc2c(C(=O)CN3C(=O)NC4(CCCCC4)C3=O)c[nH]c12	6.01
COc1ccccc1NS(=O)(=O)c1cc(NC(=S)NCC2CCCO2)ccc1C (stereo not given)	3.52
OC(c1ccc(Cl)c(F)c1)c1ncc(-c2cccc(F)c2)[nH]1 (stereo not given)	9.13
Cc1ccc(S(=O)(=O)Nc2ccc3c4c(cccc24)CC3)c(C)c1	6.8
O=S(=O)(NCCc1ccncc1)c1ccc(Br)cc1	1.15
COc1ccc(OC)c(NS(=O)(=O)c2ccc(N3CCCC3=O)cc2)c1	14.8
Cc1cc(C)cc(NS(=O)(=O)c2ccc3c(c2)C(C)(C)C(=O)N3C)c1	1.21
FC(F)Sc1ccc(NC(=S)NC2CCCCC2)cc1	4.16
C[C@H]1CN([C@@H](C)CO)C(=O)Cc2cc(N(C)C)ccc2O[C@@H]1CN(C)Cc1ccc(C(=O)Nc2ccccc2N)cc1	25.7
COc1cc(NS(=O)(=O)c2cc3c(cc2C)NC(=O)CO3)cc(OC)c1	4.02
Cc1ccc(OC(C)C(=O)Nc2ccc(C)c(S(=O)(=O)Nc3ccc(C)cc3C)c2)cc1 (stereo not given)	12.5
